Assay results published in PubChem BioAssay AID328 (DTP/NCI, 2004).
Where “and” joins values, the source holds several entries; their conditions need not be identical. Equal entries are not always repeated. Toxic doses and inconclusive results are not listed.

Test system: BDF1 mice, P388 leukemia ip, median survival T/C
Experiment: NCI In Vivo Anticancer Drug Screen. Data for tumor model P388 Leukemia (intraperitoneal) in B6D2F1 (BDF1) mice
Conditions: endpoint: median survival time, higher = longer survival
Summary of the method: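 Steps: implant the tumour, treat one group with compound and another with vehicle, record survival, then divide treated by control.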

[1] = dose: 6.25 mg/kg/injection, schedule: Q01DX009 (ip), vehicle: saline
[2] = dose: 25.0 mg/kg/injection, schedule: Q01DX009 (ip), vehicle: saline
[3] = dose: 12.5 mg/kg/injection, schedule: Q01DX009 (ip), vehicle: saline with Tween-80
[4] = dose: 50.0 mg/kg/injection, schedule: Q01DX009 (ip), vehicle: saline with Tween-80
[5] = dose: 100.0 mg/kg/injection, schedule: Q01DX009 (ip), vehicle: saline with Tween-80
[6] = dose: 100.0 mg/kg/injection, schedule: Q04DX003 (ip), vehicle: saline
[7] = dose: 200.0 mg/kg/injection, schedule: Q04DX003 (ip), vehicle: saline
[8] = dose: 100.0 mg/kg/injection, schedule: Q04DX003 (ip), vehicle: saline with Tween-80
[9] = dose: 200.0 mg/kg/injection, schedule: Q04DX003 (ip), vehicle: saline with Tween-80

With COc1cc(C(=O)OC2CC34CCNC35CC(OC5(OC)C2O)c2cc3c(cc24)OCO3)ccc1O (centres undefined) the T/C (dose: 0.5 mg/kg/injection, schedule: Q01DX010 (ip), vehicle: saline) was 100 % of control, the T/C (dose: 1.0 mg/kg/injection, schedule: Q01DX010 (ip), vehicle: carboxymethylcellulose (CMC)) was 86 % of control and the T/C (dose: 1.0 mg/kg/injection, schedule: Q01DX010 (ip), vehicle: saline) was 118 % of control. The T/C (dose: 2.0 mg/kg/injection, schedule: Q01DX010 (ip), vehicle: saline) was 95 % of control.

CC1CCC[N-]C1.CC1CCC[N-]C1.[Cl][Pt+2]([Cl])([Cl])[Cl] (centres undefined) was tested, and the T/C (dose: 3.12 mg/kg/injection, schedule: Q01DX009 (ip), vehicle: saline) was 150 % of control and 154 % of control, the T/C [1] was 172 % of control and the T/C (dose: 8.2 mg/kg/injection, schedule: Q01DX009 (ip), vehicle: saline) was 161 % of control. The T/C [2] was 154 % of control.

CCCCCOc1cc(C(=O)NN)nc(C(=O)NN)c1 was tested, and the T/C (dose: 1.56 mg/kg/injection, schedule: Q01DX009 (ip), vehicle: saline with Tween-80) was 103 % of control, the T/C (dose: 3.13 mg/kg/injection, schedule: Q01DX009 (ip), vehicle: saline with Tween-80) was 111 % of control and the T/C (dose: 6.25 mg/kg/injection, schedule: Q01DX009 (ip), vehicle: saline with Tween-80) was 111 % of control. The T/C [3] was 116 % of control.

For C=C(C)C(=O)O[C@H]1CC2=CC(CC(C)=C[C@H]3OC(=O)C(=C)C13)OC2=O (some centres undefined), the T/C (dose: 12.5 mg/kg/injection, schedule: Q01DX001 (ip), vehicle: saline with Tween-80) was 109 % of control, the T/C (dose: 25.0 mg/kg/injection, schedule: Q01DX001 (ip), vehicle: saline with Tween-80) was 120 % of control and the T/C (dose: 50.0 mg/kg/injection, schedule: Q01DX001 (ip), vehicle: saline with Tween-80) was 107 % of control and 111 % of control.

For C1=C\CCC2SC2CC/1 (centres undefined), the T/C (dose: 100.0 mg/kg/injection, schedule: Q04DX002 (ip), vehicle: saline) was 100 % of control, the T/C (dose: 200.0 mg/kg/injection, schedule: Q04DX002 (ip), vehicle: saline) was 97 % of control and the T/C (dose: 400.0 mg/kg/injection, schedule: Q04DX002 (ip), vehicle: saline) was 100 % of control.

With N#Cc1ccc(C[n+]2cccc3c([N+](=O)[O-])cccc32)cc1 the T/C [3] was 103 % of control, the T/C (dose: 25.0 mg/kg/injection, schedule: Q01DX009 (ip), vehicle: saline with Tween-80) was 108 % of control and the T/C [4] was 118 % of control.

Cn1c(=O)[nH]c(=O)c2nc(-c3cccnc3)c(-c3ccncc3)nc21 was tested, and the T/C (dose: 100.0 mg/kg/injection, schedule: Q04DX002 (ip), vehicle: saline with Tween-80) was 101 % of control, the T/C (dose: 200.0 mg/kg/injection, schedule: Q04DX002 (ip), vehicle: saline with Tween-80) was 99 % of control and the T/C (dose: 400.0 mg/kg/injection, schedule: Q04DX002 (ip), vehicle: saline with Tween-80) was 110 % of control.

CN1C(=O)N(C)C(=O)C(C)(C2(C)C(=O)N(C)C(=O)N(C)C2=O)C1=O was tested, and the T/C (dose: 100.0 mg/kg/injection, schedule: Q01DX001 (ip), vehicle: saline with Tween-80) was 100 % of control, the T/C (dose: 200.0 mg/kg/injection, schedule: Q01DX001 (ip), vehicle: saline with Tween-80) was 99 % of control and the T/C (dose: 400.0 mg/kg/injection, schedule: Q01DX001 (ip), vehicle: saline with Tween-80) was 90 % of control.

For CCCCCCCCCCCCCCCCCCCC, the T/C (dose: 6.25 mg/kg/injection, schedule: Q04DX003 (ip), vehicle: other) was 100 % of control, the T/C (dose: 12.5 mg/kg/injection, schedule: Q04DX003 (ip), vehicle: other) was 100 % of control and the T/C (dose: 25.0 mg/kg/injection, schedule: Q04DX003 (ip), vehicle: other) was 100 % of control. The T/C (dose: 50.0 mg/kg/injection, schedule: Q01DX009 (ip), vehicle: other) was 100 % of control and the T/C (dose: 100.0 mg/kg/injection, schedule: Q01DX009 (ip), vehicle: other) was 100 % of control.

With COC(/C=C\C(OC)OC)OC the T/C (dose: 4.1 mg/kg/injection, schedule: Q01DX009 (ip), vehicle: saline) was 109 % of control, the T/C (dose: 4.17 mg/kg/injection, schedule: Q01DX009 (ip), vehicle: saline) was 100 % of control and the T/C [1] was 100 % of control and 122 % of control. The T/C (dose: 9.3 mg/kg/injection, schedule: Q01DX009 (ip), vehicle: saline) was 122 % of control, the T/C (dose: 9.37 mg/kg/injection, schedule: Q01DX009 (ip), vehicle: saline) was 95 % of control and the T/C (dose: 12.5 mg/kg/injection, schedule: Q01DX009 (ip), vehicle: saline) was 112 % of control. The T/C (dose: 18.75 mg/kg/injection, schedule: Q04DX003 (ip), vehicle: saline) was 110 % of control, the T/C [2] was 112 % of control and the T/C (dose: 37.5 mg/kg/injection, schedule: Q04DX003 (ip), vehicle: saline) was 105 % of control.

In the case of Cn1c(O)c(N=NC(N)=S)c2ccccc21, the T/C (dose: 10.0 mg/kg/injection, schedule: Q01DX009 (ip), vehicle: saline with Tween-80) is reported as 102 % of control, the T/C (dose: 20.0 mg/kg/injection, schedule: Q01DX009 (ip), vehicle: saline with Tween-80) is reported as 98 % of control and the T/C (dose: 40.0 mg/kg/injection, schedule: Q01DX009 (ip), vehicle: saline with Tween-80) is reported as 115 % of control. For the same molecule, the T/C [4] was 90 % of control, the T/C (dose: 80.0 mg/kg/injection, schedule: Q01DX009 (ip), vehicle: saline with Tween-80) was 120 % of control and the T/C [5] was 90 % of control. For the same molecule, the T/C (dose: 160.0 mg/kg/injection, schedule: Q01DX009 (ip), vehicle: saline with Tween-80) was 113 % of control and the T/C (dose: 200.0 mg/kg/injection, schedule: Q01DX009 (ip), vehicle: saline with Tween-80) was 90 % of control.

For CC(=O)CC(C)=O.CC(=O)CC(C)=O.CC(=O)CC(C)=O.[In], the T/C [6] was 109 % of control and the T/C [7] was 104 % of control.

With CN(CCC#N)C1=CCCC1 the T/C (dose: 50.0 mg/kg/injection, schedule: Q04DX003 (ip), vehicle: saline) was 100 % of control, the T/C [6] was 100 % of control and the T/C [7] was 100 % of control.

For CC(=O)Oc1cc2c(cc1OC(C)=O)C(Br)CCCC2=O (centres undefined), the T/C (dose: 75.0 mg/kg/injection, schedule: Q04DX003 (ip), vehicle: other) was 95 % of control, the T/C (dose: 150.0 mg/kg/injection, schedule: Q04DX003 (ip), vehicle: other) was 95 % of control and the T/C (dose: 300.0 mg/kg/injection, schedule: Q04DX003 (ip), vehicle: other) was 109 % of control.

For Cc1ccc(CNc2cc(C)ccn2)cc1, the T/C (dose: 50.0 mg/kg/injection, schedule: Q04DX003 (ip), vehicle: saline with Tween-80) was 105 % of control, the T/C [8] was 110 % of control and the T/C [9] was 110 % of control.

In the case of CSc1nnc(-c2ccncc2)s1, the T/C (dose: 50.0 mg/kg/injection, schedule: Q01DX001 (ip), vehicle: saline) is reported as 100 % of control, the T/C (dose: 100.0 mg/kg/injection, schedule: Q01DX001 (ip), vehicle: saline) is reported as 100 % of control and the T/C (dose: 200.0 mg/kg/injection, schedule: Q01DX001 (ip), vehicle: saline) is reported as 100 % of control.

With CCC(C)(OC(C)=O)C(=O)O[C@H]1C(=O)O[C@@H]2C[C@H]3C(C)=CC(=O)[C@@H](O)[C@]3(C)[C@H]3[C@@]4(O)OC[C@]32[C@@H]1[C@@H](C)[C@H]4O (some centres undefined) the T/C (dose: 0.25 mg/kg/injection, schedule: Q01DX009 (ip), vehicle: saline) was 119 % of control, the T/C (dose: 1.25 mg/kg/injection, schedule: Q01DX009 (ip), vehicle: saline) was 157 % of control and the T/C (dose: 2.0 mg/kg/injection, schedule: Q01DX009 (ip), vehicle: saline) was 121 % of control. The T/C (dose: 5.0 mg/kg/injection, schedule: Q01DX009 (ip), vehicle: saline) was 123 % of control.

In the case of Cc1csc2nc(-c3ccccc3)nc(Cl)c12, the T/C (dose: 75.0 mg/kg/injection, schedule: Q04DX003 (ip), vehicle: saline sonified) is reported as 105 % of control, the T/C (dose: 150.0 mg/kg/injection, schedule: Q04DX003 (ip), vehicle: saline sonified) is reported as 120 % of control and the T/C (dose: 300.0 mg/kg/injection, schedule: Q04DX003 (ip), vehicle: saline sonified) is reported as 110 % of control.

CCCCSc1ncnc2c1ncn2C1CCCCO1 (centres undefined) was tested, and the T/C (dose: 100.0 mg/kg/injection, schedule: Q01DX009 (ip), vehicle: saline sonified) was 90 % of control, the T/C [8] was 87 % of control and the T/C (dose: 200.0 mg/kg/injection, schedule: Q01DX009 (ip), vehicle: saline sonified) was 122 % of control. For the same molecule, the T/C [9] was 100 % of control, the T/C (dose: 400.0 mg/kg/injection, schedule: Q01DX009 (ip), vehicle: saline sonified) was 100 % of control and the T/C (dose: 400.0 mg/kg/injection, schedule: Q04DX003 (ip), vehicle: saline with Tween-80) was 100 % of control.

With ClC1(c2ccccc2)c2ccc(Br)cc2-c2cc(Br)ccc21 the T/C (dose: 66.0 mg/kg/injection, schedule: Q01DX009 (ip), vehicle: saline with Tween-80) was 100 % of control, the T/C [5] was 121 % of control and the T/C (dose: 200.0 mg/kg/injection, schedule: Q01DX009 (ip), vehicle: Klucel (hydroxypropylcellulose) (HPC)) was 88 % of control.
